Measured values: ChEMBL document CHEMBL4359924, “Discovery of a novel 3,4-dimethylcinnoline carboxamide M4 positive allosteric modulator (PAM) chemotype via scaffold hopping” (Bioorg Med Chem Lett, 2019)

Columns and labels:
[1] = target: Muscarinic acetylcholine receptor M4 (Homo sapiens) (UniProt P08173); test: Positive allosteric modulation of human M4 receptor expressed in CHO cells co-expressing Gqi5 assessed as increase in acetylcholine-induced calcium mobilization incubated with EC20 ACh for 140 secs and subsequent EC80 Ach addition further incubated for 120 secs by Fluo-4-AM dye based fluorescence …
Muscarinic acetylcholine receptor M4 (Homo sapiens), sequence (P08173 whole entry, looked up): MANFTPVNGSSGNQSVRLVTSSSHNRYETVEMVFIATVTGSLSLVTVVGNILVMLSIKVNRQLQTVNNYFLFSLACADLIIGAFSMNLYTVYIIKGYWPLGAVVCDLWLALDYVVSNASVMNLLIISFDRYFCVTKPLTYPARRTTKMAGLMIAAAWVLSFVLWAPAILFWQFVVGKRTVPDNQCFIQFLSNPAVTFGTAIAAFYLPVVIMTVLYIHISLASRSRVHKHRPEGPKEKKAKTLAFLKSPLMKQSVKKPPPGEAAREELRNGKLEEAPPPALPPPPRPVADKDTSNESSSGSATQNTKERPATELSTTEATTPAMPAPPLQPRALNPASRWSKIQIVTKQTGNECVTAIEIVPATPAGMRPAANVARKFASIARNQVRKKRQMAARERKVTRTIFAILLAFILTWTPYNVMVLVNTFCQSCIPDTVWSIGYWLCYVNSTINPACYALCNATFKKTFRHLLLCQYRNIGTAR

[2] = Unbound brain to plasma concentration ratio in Sprague-Dawley rat at 0.2 mg/kg, iv measured for 0.25 hrs; type: ADME, organism-based; conditions: brain and plasma, read-out: K(p,uu,brain)
[3] = Intrinsic clearance in human microsomes; type: ADME, Microsome
[4] = Intrinsic clearance in rat microsomes; type: ADME, Microsome
[5] = Fraction unbound in rat brain; type: ADME, tissue-based
[6] = Fraction unbound in human plasma; type: ADME, cell-free
[7] = Fraction unbound in rat plasma; type: ADME, cell-free
[8] = Brain to plasma partition coefficient, Kp of the compound in Sprague-Dawley rat at 0.2 mg/kg, iv measured for 0.25 hrs; type: ADME, organism-based; conditions: brain and plasma

Structure (SMILES) | Emax [1] [%] | Kp uu at 0.25 h [2] | CLint scaled [3] [mL/min/kg] | CLint scaled [4] [mL/min/kg] | fraction unbound [5] | fraction unbound [6] | fraction unbound [7] | Kp at 0.25 h [8]
Cc1nnc2ccc(C(=O)NC3CN(c4cccc(C(F)(F)F)n4)C3)cc2c1C | 64 | – | – | – | – | – | – | –
Cc1nnc2ccc(C(=O)NC3CN(c4ccc(OC(F)F)nc4)C3)cc2c1C | 81 | – | – | – | – | – | – | –
Cc1nnc2ccc(C(=O)NC3CN(c4ncccc4F)C3)cc2c1C | 83 | – | – | – | – | – | – | –
Cc1nnc2ccc(C(=O)NC3CN(c4ccc(Cl)cn4)C3)cc2c1C | 73 | – | – | – | – | – | – | –
Cc1nnc2ccc(C(=O)NC3CN(c4ccc(F)c(F)c4)C3)cc2c1C | 82 | < 0.56 | 50 | 26 | 0.022 | 0.051 | 0.002 | < 0.05
Cc1nnc2ccc(C(=O)NC3CN(c4ncc(C(F)(F)F)cn4)C3)cc2c1C | 77 | – | – | – | – | – | – | –
Cc1nnc2ccc(C(=O)NC3CN(c4cccc(F)n4)C3)cc2c1C | 84 | – | – | – | – | – | – | –
Cc1nnc2ccc(C(=O)NC3CN(c4cnc(C5CC5)cn4)C3)cc2c1C | 80 | – | – | – | – | – | – | –
COc1cc(N2CC(NC(=O)c3ccc4nnc(C)c(C)c4c3)C2)c(Cl)cn1 | 74 | 0.02 | 34 | 17 | 0.023 | 0.038 | 0.012 | 0.09
Cc1nnc2ccc(C(=O)NC3CN(c4cccc(Cl)n4)C3)cc2c1C | 77 | – | – | – | – | – | – | –
Cc1nnc2ccc(C(=O)NC3CN(c4ncc(OC(C)C)cn4)C3)cc2c1C | 88 | – | – | – | – | – | – | –

Results, then the molecule that gave them:

Emax [1] [%] | Kp uu at 0.25 h [2] | CLint scaled [3] [mL/min/kg] | CLint scaled [4] [mL/min/kg] | fraction unbound [5] | fraction unbound [6] | fraction unbound [7] | Kp at 0.25 h [8] | Structure (SMILES)
77 | – | – | – | – | – | – | – | Cc1nnc2ccc(C(=O)NC3CN(c4ncc(C5CC5)cc4Cl)C3)cc2c1C
76 | – | – | – | – | – | – | – | Cc1nnc2ccc(C(=O)NC3CN(c4ncc(C(F)(F)F)cc4Cl)C3)cc2c1C
72 | 0.21 | 63 | 17 | 0.042 | 0.03 | 0.008 | 0.04 | Cc1nnc2ccc(C(=O)NC3CN(c4ncc(C#N)cc4Cl)C3)cc2c1C
84 | – | – | – | – | – | – | – | Cc1nnc2ccc(C(=O)NC3CN(c4ncccc4Cl)C3)cc2c1C
92 | 0.06 | 60 | 32 | 0.036 | 0.06 | 0.017 | 0.03 | Cc1nnc2ccc(C(=O)NC3CN(c4cc(Cl)ncc4Cl)C3)cc2c1C
80 | 0.29 | 79 | 17 | 0.036 | 0.048 | 0.015 | 0.12 | Cc1nnc2ccc(C(=O)NC3CN(c4ncc(F)cc4Cl)C3)cc2c1C
81 | – | – | – | – | – | – | – | Cc1nnc2ccc(C(=O)NC3CN(c4ccc(C#N)cn4)C3)cc2c1C
82 | 0.09 | 54 | 12 | 0.009 | 0.032 | 0.026 | 0.03 | Cc1nnc2ccc(C(=O)NC3CN(c4ncc(Cl)cc4F)C3)cc2c1C
